Source: patent US9744191B2, “Antimicrobial compositions and methods” (Yale University, priority 2012, dated 2017)
Entries after “also recorded” stand apart in the source; their conditions may differ.

Legend:
[1] = tested on: Saccharomyces cerevisiae MYH500; experiment: Growth assays for Novexatin combined with fluoride: S. cerevisiae; format: cell-based; settings: S. cereviciae; for improvement in MIC at about 24 hours: 30 mM NaF, approximately 24 hours (26.25 h)
Protocol: (§1) Model Organism: Saccharomyces cerevisiae MYH500 [Genotype: his3-del200, leu2-3, ura3-52, lys2-801, trp1-1, gal2]
Methods: • 1. Pick an isolated yeast colony (S. cerevisiae MYH500) from a plate, inoculate into 2 mL YPD medium in a 14 mL snap-cap tube and grow for 12 h at 30° C. on a shaker (200 rpm). The O.D.600 of the culture should be approximately 1.30. • 2. For growth curve measurements, culture cells in a honeycomb 2 plate with 80 μL of medium (final volume) inoculated with 2 μL of 1:12 diluted cells. Culture for 48 hrs at 30° C., measuring O.D.600 every 15 m without shaking in the Bioscreen C MBR instrument. • 3. Supplement a fungicide and/or fluoride in the culture as necessary for each experiment.

[2] = tested on: Saccharomyces cerevisiae MYH500; experiment: Growth assays for antifungal compounds combined with fluoride: S. cerevisiae; format: cell-based; settings: for fungal growth inhibition compared with NaF: 30 mM and 80 mM, with amphotericin B; for effect of ion on MIC of amphotericin B: tested at 30 mM and 80 mM with amphotericin B; for inhibition of S. cereviciae growth: under the assay conditions, data not shown
Protocol: as §1
Methods: • 1. Pick an isolated yeast colony (S. cerevisiae MYH500) from a plate, inoculate into 2 mL YPD medium in a 14 mL snap-cap tube and grow for 12 h at 30° C. on a shaker (200 rpm). The O.D.600 of the culture should be approximately 1.30. • 2. Two growth methods are used. (i) If culturing cells in 14 mL snap-cap tubes, dilute the cells 1:3 (1 vol. of 12 hr cell culture plus 2 vol. medium). Then, inoculate 2 mL YPD medium with 20 μL of 1/3 diluted cells (1% inoculation). […] (ii) For growth curve measurements, culture cells in a honeycomb 2 plate (Oy Growth Curves Ab Ltd) with 400 μL of medium inoculated with 8 μL of 1:6 diluted cells (1% inoculation). […] Supplement a fungicide and/or fluoride in the culture as necessary for each experiment.

[3] = target: T1, crcB fluoride transporter (Escherichia coli, UniProt P37002); experiment: Fluoride riboswitch beta-galactosidase reporter assay in E. coli cells with imipramine; format: cell-based
T1 construct: endogenous in cells; host or cells: E. coli cells carrying a fluoride riboswitch beta-galactosidase reporter construct
Source text: Fluoride riboswitch fused to a beta-galactosidase reporter gene. Construct is present in E. coli cells and cells are exposed to concentrations of sodium fluoride and imipramine (x-axis) as noted in FIG. 10.

[4] = tested on: Candida albicans (SC5314; ATCC number MYA-2876); experiment: Growth assays for amphotericin B combined with fluoride: C. albicans; format: cell-based; settings: for effect on C. albicans growth: liquid medium, 48 hours
Protocol: Organism: Candida albicans (SC5314; ATCC number MYA-2876)
Methods: • 1. Pick an isolated C. albicans yeast colony from a plate, inoculate into 2 mL YPD medium in a 17 mL screw-cap tube and grow for 12 h at 28° C. on a shaker (200 rpm). The O.D.600 of the culture should be approximately 3.6. • 2. Two growth methods were used. (i) If culturing cells in 17 ml screw-cap tubes, dilute the cells 1:5 (1 volume of 12 hr cell culture plus 4 volumes of medium). Inoculate 2 mL YPD medium with 20 μL of 1-to-5 diluted cells (1% inoculation). Incubate at 28° C. and 200 rpm for 9 hours before measuring O.D. (ii) For growth curve measurements, culture cells in a honeycomb 2 plate with 400 μL of medium inoculated with 8 μL of 1-to-10 diluted cells (1% inoculation). Culture for 48 hrs at 28° C., measuring OD600 every 15 m without shaking in the Bioscreen C MBR instrument. • 3. Supplement a fungicide and/or fluoride in the culture as necessary for each experiment.

[5] = tested on: Neurospora crassa (FGSC #2225); experiment: Growth assays for antifungal compounds combined with fluoride: N. crassa; format: cell-based
Protocol: Model Organism: Neurospora crassa (FGSC #2225) [Genotype: N. crassa, A]
Methods: • 1. Recover N. crassa on a slant with minimal medium at 25° C. for 5-6 days to grow spores. • 2. Re-suspend two loops of spores in 2 mL minimal medium. • 3. Inoculate 20 μL into 2 mL minimal medium in an autoclaved 16×150 mm glass tube with cap. • 4. Supplement a fungicide and/or fluoride in the culture as necessary for each experiment. • 5. Grow for 24 h at 25° C. on a shaker (200 rpm).

[6] = tested on: Escherichia coli crcB knock-out; settings: E. coli crcB knock-out compared to wild-type; cited from earlier work
[7] = tested on: Saccharomyces cerevisiae MYH500; experiment: Fungicidal fluoride assay (colony counts after culture in fluoride); format: cell-based; settings: 300 mM fluoride in liquid medium, 160 minute incubation
Protocol: CrcB proteins are most likely fluoride transporters. The fungal expression of crcB and the subsequent ejection of fluorides from cells is a major mechanism for how these organisms overcome fluoride toxicity. To assess whether fluoride simply halts fungal growth (fungistatic) or kills fungal cells (fungicidal), a culture of Saccharomyces cereviciae and added 300 mM fluoride to the medium was prepared. Samples of this mixture were taken at various times, plated, and the number of resulting colonies were recorded (FIG. 1). […] Therefore, compounds that facilitate the uptake and/or retention of fluoride, or otherwise inhibit the fluoride toxicity mitigation responses of fungi, also function as fungicidal compounds when used in combination with fluoride.
as §1
Medium: YPD (liquid and solid)
• 1. Pick an isolated yeast colony (S. cerevisiae MYH500) from a plate, inoculate into 2 mL YPD medium (liquid) in a 14 mL snap-cap tube and grow for 12 h at 30° C. on a shaker (200 rpm). • 2. Dilute 20 μL of the culture into 2 mL medium and mix. Remove a 20 μL aliquot and transfer to 2 mL YPD medium with 300 mM NaF. Grow at 30° C. on a shaker (200 rpm) for 10, 20, 40, 80, 160 and 240 m. • 3. At each time point, transfer 100 μL culture to an agar plate and distribute. • 4. […]

T1 sequence (P37002 whole entry): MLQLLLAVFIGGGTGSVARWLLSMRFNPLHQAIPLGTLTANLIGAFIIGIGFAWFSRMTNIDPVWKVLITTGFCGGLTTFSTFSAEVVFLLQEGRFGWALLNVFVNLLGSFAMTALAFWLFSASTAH

## cyclic hepta-arginine [NOVEXATIN®]
[1]
  improvement in MIC at about 24 hours: A similar result
[1]; listed as Novexatin®
  improvement in MIC at about 24 hours: improvement in MIC
[1]; combined with 30 mM fluoride, 48 h
  improvement in MIC: greater than 3 fold
[1]; over 48 hours, no fluoride
  concentration needed to almost completely prevent fungal growth: 3 mM

## [Cl-].[Na+] [NaCl]
[2]
  fungal growth inhibition compared with NaF: consistently less effective than NaF
  effect of ion on MIC of amphotericin B: improve the MIC values of amphotericin B

## aculeacin A
[2]; 30 mM fluoride
  effect of fluoride on inhibition of S. cereviciae growth by the antifungal: not affected at all; also recorded: lack of an effect

## CN(C)CCCN1c2ccccc2CCc2ccccc21 [imipramine, Imipramine]
[3]; 330 μM imipramine, E. coli cells with riboswitch-reporter construct, sodium fluoride
  reporter gene expression (fluorescence, substrate 4-MUG): increased expression of the reporter gene
[3]; E. coli cells lacking the gene for fluoride transporter protein CrcB
  reporter gene expression with imipramine in cells lacking CrcB: substantially reduced

## C[C@@H]1[C@H](O)[C@@H](C)/C=C/C=C/C=C/C=C/C=C/C=C/C=C/[C@H](O[C@@H]2O[C@H](C)[C@@H](O)[C@H](N)[C@@H]2O)C[C@@H]2O[C@](O)(C[C@@H](O)C[C@@H](O)[C@H](O)CC[C@@H](O)C[C@@H](O)CC(=O)O[C@H]1C)C[C@H](O)[C@H]2C(=O)O [amphotericin B]
[4]; medium supplemented with 30 mM fluoride
  MIC for C. albicans: ~0.05 µM
[2]; 10 nM amphotericin B in combination with a range of fluoride concentrations
  effect of combination on growth inhibition: dramatic increase in the growth-inhibition effects of fluoride
[2]; 10 nM amphotericin B used alone
  effect on cell growth: almost no effect on cell growth
[2]; 20 nM amphotericin B alone
  growth inhibition effect on S. cereviciae: almost no growth inhibition effect
[2]; 30 mM fluoride added to liquid medium
  improvement in MIC for S. cereviciae: approximately 10 fold
[2]; 80 mM fluoride
  improvement in MIC for S. cereviciae: ~30 fold
[2]; absence of fluoride, over 48 hours
  amphotericin B concentration required to almost completely inhibit growth: 300 nM
[2]; amphotericin B 30 to 70 nM, absence of fluoride
  effect on S. cereviciae growth: only marginally delay near full growth
[5]; amphotericin B tested independently, 24 h
  amphotericin B concentration required to prevent N. crassa growth: greater than 300 nM
[5]; combined with 10 mM fluoride
  reduction of MIC for N. crassa: at least 4 fold
[5]; combined with 30 mM fluoride
  reduction of MIC for N. crassa: ≥ 10 fold

## [Cl-].[K+] [KCl]
[2]
  fungal growth inhibition compared with NaF: consistently less effective than NaF
  effect of ion on MIC of amphotericin B: improve the MIC values of amphotericin B

## [F-].[Na+] [fluoride, Sodium fluoride]
[6]
  increase in sensitivity to fluoride of crcB knock-out strain: approximately 200 fold
[4]; 100 mM fluoride alone
  effect on C. albicans growth: only a modest inhibitory effect
[4]; 300 mM fluoride alone
  effect on C. albicans growth: completely prevented growth
[2]; 60 mM fluoride combined with 20 nM amphotericin B
  effect on fungal growth: complete inhibition of growth
[2]; 60 mM fluoride tested alone
  effect on fungal growth: only a modest effect on fungal growth
[2]; 80 mM fluoride alone
  lengthening of time to near full culture growth: two fold
[2]; fluoride alone, 30 mM in liquid medium
  effect on S. cereviciae growth: only marginally affects
[2]; fluoride alone, 48-hour culture
  fluoride concentration required to completely inhibit fungal growth: > 100 mM
[7]
  loss of cell viability (colonies after plating): near complete killing
[5]; fluoride tested independently, 24 h
  fluoride concentration required to completely prevent N. crassa growth: greater than 80 mM

## CN(C/C=C/C#CC(C)(C)C)Cc1cccc2ccccc12 [terbinafine]
[2]
  inhibition of S. cereviciae growth: did not significantly inhibit S. cereviciae growth

## Cc1cccc(N(C)C(=S)Oc2ccc3ccccc3c2)c1 [tolnaftate]
[2]
  inhibition of S. cereviciae growth: did not significantly inhibit S. cereviciae growth
